Literature values as cited in US20220235034A1, “SELECTIVE HISTAMINE H3 RECEPTOR ANTAGONISTS FOR TREATING AUTISM SPECTRUM DISORDER” (RICHTER GEDEON NYRT., priority 2019, published 2022).

Tests used:
histamine H3 receptor [1] = target: T1, histamine H3 receptor (Homo sapiens, UniProt Q9Y5N1); details: according to WO 2014/136075A1; cited from earlier work
histamine H3 receptor [2] = target: T1, histamine H3 receptor; details: cited from earlier work
histamine H3 receptor [3] = target: T2, histamine H3 receptor (Rattus norvegicus, UniProt Q9QYN8); details: in vivo in rats; cited from earlier work
T2 construct: from tissue; host or cells: living rat (in vivo)

rat monoamine oxidase A = target: T3, rat monoamine oxidase A (Rattus norvegicus, UniProt P21396); details: cited from earlier work
T3 sequence (P21396 1-526): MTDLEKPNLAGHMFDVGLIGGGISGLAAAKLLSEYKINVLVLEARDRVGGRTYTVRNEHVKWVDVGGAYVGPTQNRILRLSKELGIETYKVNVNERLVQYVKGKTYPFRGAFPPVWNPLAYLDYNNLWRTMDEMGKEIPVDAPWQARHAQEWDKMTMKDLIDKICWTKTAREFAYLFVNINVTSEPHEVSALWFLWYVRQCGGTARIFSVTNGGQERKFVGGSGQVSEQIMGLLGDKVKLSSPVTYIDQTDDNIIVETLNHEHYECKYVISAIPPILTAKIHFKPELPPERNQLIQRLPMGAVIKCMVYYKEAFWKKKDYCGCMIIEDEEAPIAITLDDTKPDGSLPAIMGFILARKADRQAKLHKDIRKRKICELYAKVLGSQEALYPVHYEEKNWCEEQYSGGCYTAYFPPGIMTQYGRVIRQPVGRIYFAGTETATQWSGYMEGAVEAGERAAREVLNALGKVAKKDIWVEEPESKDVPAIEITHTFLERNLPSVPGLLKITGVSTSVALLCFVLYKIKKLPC

[4] = target: T4, human monoamine oxidase B (Homo sapiens, UniProt P27338); details: cited from earlier work
T4 sequence (P27338 1-520): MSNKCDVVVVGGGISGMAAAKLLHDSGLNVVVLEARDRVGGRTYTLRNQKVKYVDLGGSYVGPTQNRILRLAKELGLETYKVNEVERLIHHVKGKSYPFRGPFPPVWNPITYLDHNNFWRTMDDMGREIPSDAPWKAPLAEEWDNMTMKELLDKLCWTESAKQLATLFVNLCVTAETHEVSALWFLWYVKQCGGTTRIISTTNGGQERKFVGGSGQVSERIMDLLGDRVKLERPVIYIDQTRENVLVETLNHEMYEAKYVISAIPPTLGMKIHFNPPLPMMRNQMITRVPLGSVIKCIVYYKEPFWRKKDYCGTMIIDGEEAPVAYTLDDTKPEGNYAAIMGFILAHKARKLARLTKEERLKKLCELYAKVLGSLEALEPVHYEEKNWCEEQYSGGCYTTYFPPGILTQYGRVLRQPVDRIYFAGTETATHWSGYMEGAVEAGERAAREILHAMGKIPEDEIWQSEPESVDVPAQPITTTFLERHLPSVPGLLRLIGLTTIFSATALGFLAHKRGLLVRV

[5] = target: T5, human monoamine oxidase A (Homo sapiens, UniProt P21397); details: cited from earlier work
T5 sequence (P21397 1-527): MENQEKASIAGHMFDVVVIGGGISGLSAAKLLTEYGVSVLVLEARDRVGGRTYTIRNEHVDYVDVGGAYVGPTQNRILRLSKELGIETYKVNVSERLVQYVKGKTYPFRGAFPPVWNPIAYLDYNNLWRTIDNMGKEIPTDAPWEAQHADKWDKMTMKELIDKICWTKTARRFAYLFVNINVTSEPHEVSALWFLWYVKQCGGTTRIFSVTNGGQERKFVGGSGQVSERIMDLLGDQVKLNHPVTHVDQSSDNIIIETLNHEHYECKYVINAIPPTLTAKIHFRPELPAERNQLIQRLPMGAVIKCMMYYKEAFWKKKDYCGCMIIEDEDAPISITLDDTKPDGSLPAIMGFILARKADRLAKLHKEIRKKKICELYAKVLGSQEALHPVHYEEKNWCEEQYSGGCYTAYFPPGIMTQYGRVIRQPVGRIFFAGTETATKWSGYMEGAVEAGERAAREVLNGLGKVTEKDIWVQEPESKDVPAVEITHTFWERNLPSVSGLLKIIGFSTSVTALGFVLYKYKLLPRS

[6] = 3 mg/kg intraperitoneally; cited from earlier work
[7] = system: prenatally VPA-exposed mice; details: cited from earlier work
rat monoamine oxidase B = target: T6, rat monoamine oxidase B (Rattus norvegicus, UniProt P19643); details: cited from earlier work
T6 sequence (P19643 1-520): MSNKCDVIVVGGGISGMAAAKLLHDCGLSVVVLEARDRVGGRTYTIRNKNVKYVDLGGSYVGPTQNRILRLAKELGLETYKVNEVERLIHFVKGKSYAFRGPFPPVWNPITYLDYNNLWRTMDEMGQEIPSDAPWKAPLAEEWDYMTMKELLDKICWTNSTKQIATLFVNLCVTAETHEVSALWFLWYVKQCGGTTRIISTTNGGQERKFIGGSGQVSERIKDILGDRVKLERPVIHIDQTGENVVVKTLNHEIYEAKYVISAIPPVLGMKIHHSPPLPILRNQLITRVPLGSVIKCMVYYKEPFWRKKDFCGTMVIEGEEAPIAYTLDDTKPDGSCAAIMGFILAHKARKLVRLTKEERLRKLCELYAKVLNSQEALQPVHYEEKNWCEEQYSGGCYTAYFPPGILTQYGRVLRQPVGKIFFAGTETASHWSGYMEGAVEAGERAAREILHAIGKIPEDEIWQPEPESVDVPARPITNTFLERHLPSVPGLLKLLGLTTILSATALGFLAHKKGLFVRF

prenatal VPA model = details: in vivo; cited from earlier work
ASD subjects = details: humans; cited from earlier work
[8] = 3 mg/kg intraperitoneally, prenatal valproate model in mice

T1 sequence (Q9Y5N1 whole entry, species assumed): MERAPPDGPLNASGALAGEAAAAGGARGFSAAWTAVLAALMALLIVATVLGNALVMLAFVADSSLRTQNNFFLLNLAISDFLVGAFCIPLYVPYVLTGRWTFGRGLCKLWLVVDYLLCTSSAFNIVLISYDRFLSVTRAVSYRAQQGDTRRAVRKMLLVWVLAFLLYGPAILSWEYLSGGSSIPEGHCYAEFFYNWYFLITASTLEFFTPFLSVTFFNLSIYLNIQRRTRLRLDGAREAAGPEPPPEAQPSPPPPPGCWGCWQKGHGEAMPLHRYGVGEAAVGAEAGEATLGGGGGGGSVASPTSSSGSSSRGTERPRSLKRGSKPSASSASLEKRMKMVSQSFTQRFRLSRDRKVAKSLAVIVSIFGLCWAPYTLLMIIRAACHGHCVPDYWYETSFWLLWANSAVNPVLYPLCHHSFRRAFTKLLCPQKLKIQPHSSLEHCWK
T2 sequence (Q9QYN8 whole entry): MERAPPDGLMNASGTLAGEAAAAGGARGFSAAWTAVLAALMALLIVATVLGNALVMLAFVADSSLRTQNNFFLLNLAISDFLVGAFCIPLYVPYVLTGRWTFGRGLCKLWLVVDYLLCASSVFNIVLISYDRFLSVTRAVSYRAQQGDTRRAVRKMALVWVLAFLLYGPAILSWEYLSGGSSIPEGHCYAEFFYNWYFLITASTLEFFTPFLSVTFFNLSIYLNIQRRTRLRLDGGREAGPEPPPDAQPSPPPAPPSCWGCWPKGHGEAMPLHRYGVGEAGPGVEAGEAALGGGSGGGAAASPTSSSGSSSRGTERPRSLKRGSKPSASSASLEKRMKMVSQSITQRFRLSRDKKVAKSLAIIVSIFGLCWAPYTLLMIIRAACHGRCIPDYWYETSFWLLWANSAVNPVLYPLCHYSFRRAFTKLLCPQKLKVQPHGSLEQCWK

CC(=O)N1CCC(Oc2ccc(OCCCN3CCC[C@H]3C)cc2)CC1 [Compound of Formula 1, 1-[4-(4-{3-[(2R)-2-methylpyrrolidin-1-yl]-propoxy}-phenoxy)-piperidin-1-yl]-ethan-1-on]
affinity for histamine H3 receptor (histamine H3 receptor [1]): high affinity | selectivity for histamine H3 receptor (histamine H3 receptor [1]): highly selective | functional behaviour in vitro (histamine H3 receptor [2]): receptor antagonist/inverse agonist | histamine H3 receptor antagonism in vivo (histamine H3 receptor [3]): shows histamine H3 receptor antagonism in vivo

O=C(c1ccc(OCCCc2cnc[nH]2)cc1)C1CC1 [ciproxifan]
inhibition of monoamine oxidase A, concentration range (rat monoamine oxidase A): micromolar concentration range | preference between monoamine oxidase A and B ([4]; human and rat enzymes): slight preference for monoamine oxidase B | inhibition of monoamine oxidase B, concentration range ([4]; human): micromolar concentration range | inhibition of monoamine oxidase A, concentration range [5]: micromolar concentration range | plasma exposures [6]: micromolar range | excessive repetitive behavior [7, 8]: improved | social deficits [7, 8]: improved | social novelty preference ([7]; prenatally VPA-exposed mice): did not have an effect | inhibition of monoamine oxidase B, concentration range (rat monoamine oxidase B): micromolar concentration range

CC[C@H](C)[C@@H]1NC(=O)[C@H](Cc2ccc(O)cc2)NC(=O)[C@@H](N)CSSC[C@@H](C(=O)N2CCC[C@H]2C(=O)N[C@@H](CC(C)C)C(=O)NCC(N)=O)NC(=O)[C@H](CC(N)=O)NC(=O)[C@H](CCC(N)=O)NC1=O [oxytocin]
behavioral impairments in the prenatal VPA model (prenatal VPA model): improve behavioral impairments | efficacy signals in ASD subjects (ASD subjects): produced efficacy signals
